According to patent US9790496B2, “Microrna compounds and methods for modulating MIR-21 activity” (Regulus Therapeutics, Inc., priority 2011, dated 2017):
“And” between values parts separate entries of the source, which are not always exact repeats. Identical values can stand only once.

Key:
[1] = Ex vivo liver homogenate stability assay (HPLC-TOF MS); details: 5 μM in liver homogenate (50 mg tissue per ml), 24 hours at 37° C.
[2] = system: ischemia reperfusion injury/nephrectomy (IR/Nx) model; test: Survival rate of IR/Nx model mice two days after nephrectomy; format: in vivo
Method: The survival rate of IR/Nx model mice two days after nephrectomy was determined across six different experiments to determine if administration of anti-miR-21 compounds increases survival. In the first three experiments, anti-miR-21 compound was administered on days 5, 6, and 7 after ischemia reperfusion injury, and nephrectomy occurred on day 10 or day 11. In the second three experiments, anti-miR-21 compound was administered on days 2, 3, and 4, and nephrectomy occurred on day 7.

[3] = system: ischemia reperfusion injury (IRI) model; test: Unilateral IRI model: collagen area fraction of kidney tissue; format: in vivo, mouse
Method: (§1) A model of ischemia reperfusion injury (IRI) is created in the mouse through unilateral or bilateral clamping of kidney arteries, which leads to tubule damage, inflammation, and fibrosis. Kidney dysfunction can occur either early (<5 days) or late (>7 days) in this model, with the early time points useful to test candidate agents for the treatment of acute kidney injury, and the later time points useful to model chronic fibrosis.
(§2) Anti-miR-21 compounds were tested in the unilateral IRI model. Unilateral IRI was induced for a period of 30 minutes. Treatment groups were as follows: sham IRI procedure; IRI with PBS administered subcutaneously; IRI with anti-miR-21 compound 25070 administered intraperitoneally at a dose of 20 mg/kg; the 2′-fluoro/2′-MOE modified anti-miR-21 25919 administered intraperitoneally at a dose of 20 mg/kg; and a 2′-fluoro/2′ modified mismatch anti-miR-21 (having three mismatches to the sequence of miR-21) 25319 administered intraperitoneally at a dose of 20 mg/kg. PBS or anti-miR compound was administered on days 5, 6, and 7 following IRI, and animals were sacrificed 14 days after IRI. As anti-miR compound is administered 5 days following the injury to the kidney, or later, when fibrosis has already occurred to some extent, this treatment regimen is considered a therapeutic regimen, rather than a prophylactic regimen.
(§3) Kidney tissue was collected for analysis of collagen 1A1 and collagen 3A1 expression (shown in Table O), and collagen area fraction (shown in Table P).
(§4) A similar study was performed with the same treatment groups and additional days of treatment. In this study, treatments were administered intraperitoneally at days 5, 6, 7, 14, and 21 following the IRI procedure Animals were sacrificed on Day 27, and kidney tissue was collected for analysis of collagen 1A1 and collagen 3A1 expression, as well as collagen area fraction.

[4] = system: collagen 1A1 and collagen 3A1 expression in kidney, ischemia reperfusion injury (IRI) model; test: Unilateral ischemia reperfusion injury (IRI) model: kidney collagen 1A1 and collagen 3A1 expression; format: in vivo, mouse
Method: as §1, §2, §3, §4
In order to assess the flexibility of administration of the anti-miR-21 compound 25070, the activity of the compound in the 14 day study above, where anti-miR-21 was administered at […] following the IRI procedure, to a different 14 day study where anti-miR-21 was administered intraperitoneally at days 3, 5, and 7 following the IRI procedure.

[5] = system: collagen 1A1 and collagen 3A1 expression in kidney, ischemia reperfusion injury (IRI) model; test: as above; format: in vivo, mouse; details: 14 day study, dosing Day 5, 6, 7, fold change relative to sham
[6] = system: collagen 1A1 and collagen 3A1 expression in kidney, unilateral ureteral obstruction (UUO) model; test: UUO model of kidney fibrosis: kidney collagen 1A1 and collagen 3A1 expression by real-time PCR; format: in vivo, mice; details: for Collagen 1A1 (Normalized Expression), individual animal / Collagen 3A1 (Normalized Expression), individual animal: 20 mg/kg
In short: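 Fibrosis induced by unilateral ureter ligation, groups of 8; anti-miR-21 compounds dosed at 20 mg/kg around surgery (days −3, −1, +5 or −5, −3, +3; repeat study subcutaneous at −5, −2, +3). Kidneys taken on day 10 or 11; Col1A1 and Col3A1 mRNA measured by real-time PCR, normalized to GAPDH and, in one study, also to sham.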

[7] = IRI, 14 day study, dosing Day 3, 5, 7 intraperitoneally, fold change relative to sham
[8] = unilateral IRI, 20 mg/kg intraperitoneally on days 5, 6, 7, sacrifice 14 days after IRI, 20 mg/kg
[9] = unilateral IRI, intraperitoneally on days 5, 6, 7, 14, 21, sacrifice Day 27
[10] = UUO comparison study, 25070 20 mg/kg s.c. at days -5, -2, +3, irbesartan PO daily days 0-7, sacrifice Day 10
[11] = UUO, 20 mg/kg at days -3, -1, +5 (prophylactic), kidney at day 11, real-time PCR normalized to GAPDH then sham
[12] = meta-analysis of repeated UUO studies, 20 mg/kg at days -3, -1, +5, kidney at day 11
[13] = repeat UUO study, 20 mg/kg SC, prophylactic

## AECSATCSAGTCSTGAUSAAGCSTAE (ACATCAGTCTGATAAGCTA; modified nucleosides coded in name, code key not given here) [Compound 25070]
[1]
  compound lacking the 3'-terminal nucleoside: about 27%
  compound present as the full-length compound: about 58%
[2]; Study 4, Nx Day 7, 20 mg/kg on days 2, 3, 4 after IR
  Survival rate 2 days after Nx: 75%
[2]; first three experiments: dosing days 5, 6, 7, nephrectomy day 10 or 11, PBS 55%, P=0.02
  survival rate 2 days after nephrectomy: 80%
[2]; second three experiments: dosing days 2, 3, 4, nephrectomy day 7, PBS 52%, P=0.11
  survival rate 2 days after nephrectomy: 69%
[3]; 20 mg/kg intraperitoneally on days 5, 6, 7, sacrifice 14 days after IRI, 20 mg/kg
  Collagen Area Fraction (#), individual animal: 10.266 and 11.772 and 10.267 and 8.404 and 7.862 and 6.975 and 8.381 and 13.773
[3]; 20 mg/kg intraperitoneally on days 5, 6, 7, sacrifice 14 days after IRI, group mean
  Collagen Area Fraction (#), Mean: 9.7
[3]; i.p. 20 mg/kg on days 5, 6, 7, sacrificed 14 days after IRI
  reduction in collagen area fraction (in words): statistically significant reduction
[3]; i.p. on days 5, 6, 7, 14, 21, sacrificed Day 27
  reduction in collagen area fraction (in words): statistically significant reduction
[3]; intraperitoneally on days 5, 6, 7, 14, 21, sacrifice Day 27
  Collagen Area Fraction (#), individual animal: 7.354 and 9.241 and 9.589 and 11.573 and 8.182 and 10.695 and 13.978 and 10.12
[4]; IRI, 14 day studies, two dosing schedules compared (days 3, 5, 7 i.p.)
  reduction of collagen 1A1 or collagen 3A1 expression relative to sham (in words): statistically significant reduction of collagen expression with either dosing schedule
[4]; [7]
  Collagen 1A1 (Normalized Expression), individual animal: 37.5 and 21.9 and 35.3 and 26.0 and 24.9 and 16.8 and 30.8 and 34.3 and 36.8 and 9.4 and 28.0 and 24.6
  Collagen 3A1 (Normalized Expression), individual animal: 35.3 and 23.6 and 32.1 and 25.1 and 31.3 and 18.6 and 30.3 and 37.6 and 40.0 and 9.5 and 23.2 and 28.7
[4]; [8]
  Collagen 1A1 (Normalized Expression), individual animal: 81.7 and 57.4 and 37.9 and 55.3 and 22.3 and 52.4 and 53.0 and 41.5
  Collagen 3A1 (Normalized Expression), individual animal: 57.8 and 18.1 and 39.3 and 36.0 and 20.6 and 38.6 and 33.4 and 29.7
[4]; [9]
  Collagen 1A1 (Normalized Expression), individual animal: 26.4 and 37.4 and 41.9 and 36.8 and 14.1 and 27.7 and 29.4 and 37.6
  Collagen 3A1 (Normalized Expression), individual animal: 16.4 and 27.0 and 28.5 and 19.6 and 11.3 and 19.3 and 21.4 and 23.1
[5]
  Collagen 1A1 (Normalized Expression), individual animal: 21.7 and 22.8 and 15.8 and 27.6 and 27.1 and 29.3 and 10.8 and 21.5 and 29.9 and 35.0 and 28.3 and 24.2
  Collagen 3A1 (Normalized Expression), individual animal: 24.9 and 26.3 and 13.6 and 25.4 and 32.7 and 29.9 and 9.7 and 22.2 and 33.2 and 35.4 and 32.3 and 28.9
[6]; [10]
  Collagen 1A1 (Normalized Expression), individual animal: 87.5 and 67.4 and 22.2 and 61.9 and 42.0 and 69.2 and 68.4 and 95.2
  Collagen 3A1 (Normalized Expression), individual animal: 38.6 and 56.9 and 77.2 and 50.7 and 76.4 and 49.7 and 44.3 and 35.9
[6]; UUO comparison with irbesartan, 25070 s.c. 20 mg/kg days -5, -2, +3, irbesartan perorally daily days 0-7, day 10
  reduction in Col3a1 expression (in words): statistically significant reductions
[6]; UUO comparison with irbesartan, 25070 s.c. 20 mg/kg days -5, -2, +3, irbesartan perorally daily days 0-7, day 10, p<0.05 one-way ANOVA
  reduction in Col1A1 expression relative to saline-treated animals (in words): statistically significant reduction
[6]; UUO, 20 mg/kg at days -3, -1, +5 (prophylactic), kidney at day 11, group mean
  Collagen 1A1 (Normalized Expression), Mean: 81.0
[6]; [11]
  Collagen 1A1 (Normalized Expression), individual animal: 67.7 and 97.7 and 88.8 and 95.9 and 71.4 and 44.5 and 73.0 and 109.4
  Collagen 3A1 (Normalized Expression), individual animal: 36.4 and 75.6 and 47.3 and 55.5 and 63.3 and 28.5 and 64.2 and 72.9
[6]; [12]
  inhibition of collagen 1A1 expression: 40%
  inhibition of collagen 3A1 expression: 30%
[6]; [13]
  Collagen 1A1 (Normalized Expression), individual animal: 13.9 and 9.2 and 32.3 and 57.2 and 47.6 and 26.1 and 35.0 and 20.4
  Collagen 3A1 (Normalized Expression), individual animal: 34.9 and 47.4 and 25.3 and 38.0 and 47.9 and 54.3 and 56.1 and 35.2
[6]; repeated UUO study, subcutaneously 20 mg/kg, prophylactic
  inhibition of collagen 1A1 and collagen 3A1 expression (in words): potent inhibitor of collagen 1A1 and collagen 3A1 expression
